For assay [1], the target named is T1, Flt-3 receptor (constitutively active mutant Flt3ITD, MV4-11 cell line) (Homo sapiens, UniProt P36888, INS600HVDFREYEYD).
T1 construct: bearing a constitutively active mutant Flt3ITD; endogenous in cells; host or cells: MV4-11
T1 sequence (P36888 with tags, fused parts or gaps INS600HVDFREYEYD): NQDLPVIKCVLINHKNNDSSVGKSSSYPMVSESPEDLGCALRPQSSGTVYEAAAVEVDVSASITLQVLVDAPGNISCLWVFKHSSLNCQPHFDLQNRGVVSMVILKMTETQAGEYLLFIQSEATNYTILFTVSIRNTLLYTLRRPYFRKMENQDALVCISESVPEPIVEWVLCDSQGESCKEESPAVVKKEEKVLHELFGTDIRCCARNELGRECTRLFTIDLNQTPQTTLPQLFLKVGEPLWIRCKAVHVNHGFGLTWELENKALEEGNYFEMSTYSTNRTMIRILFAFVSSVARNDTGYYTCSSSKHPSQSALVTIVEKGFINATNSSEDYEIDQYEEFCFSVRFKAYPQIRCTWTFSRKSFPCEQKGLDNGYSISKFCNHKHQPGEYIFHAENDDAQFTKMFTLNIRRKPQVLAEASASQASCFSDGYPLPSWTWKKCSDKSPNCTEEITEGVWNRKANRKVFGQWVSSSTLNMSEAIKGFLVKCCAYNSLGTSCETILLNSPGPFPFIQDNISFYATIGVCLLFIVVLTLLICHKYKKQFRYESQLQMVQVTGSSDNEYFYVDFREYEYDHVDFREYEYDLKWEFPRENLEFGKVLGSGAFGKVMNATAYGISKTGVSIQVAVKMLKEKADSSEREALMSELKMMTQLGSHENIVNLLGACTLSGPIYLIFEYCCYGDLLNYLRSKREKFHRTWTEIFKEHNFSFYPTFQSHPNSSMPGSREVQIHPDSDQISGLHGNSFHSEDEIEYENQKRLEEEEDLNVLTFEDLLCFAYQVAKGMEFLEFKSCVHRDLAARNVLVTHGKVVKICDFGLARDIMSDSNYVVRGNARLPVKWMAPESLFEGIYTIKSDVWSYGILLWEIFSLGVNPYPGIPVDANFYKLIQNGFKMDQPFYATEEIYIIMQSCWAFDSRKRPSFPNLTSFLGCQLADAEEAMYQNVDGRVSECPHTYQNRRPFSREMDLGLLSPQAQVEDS
Put plainly: Inhibition of proliferation of MV4-11 cells (tyrosine kinase activity of Flt-3 receptor), CellTiter-Glo, 72 h. Particulars: 72 h incubation, cellular ATP, read-out: IC50 (concentration that inhibits 50% of the proliferation of the MV4-11 cells). The format is cell-based. On the procedure:
(§1) The inhibitory activity with respect to PDGF or Flt-3 receptors is given by the concentration that inhibits 50% of the proliferation activity of cells Baf3 tel/PDGF or MV4-11, respectively.
Measurement of Inhibition of the Tyrosine Kinase Activity of the Flt-3 Receptor
The inhibitory effect of the compounds according to the invention on the tyrosine kinase activity of the Flt-3 receptor was evaluated on the MV4-11 cell line, a line established from a leukaemia of the AML type and bearing a constitutively active mutant Flt3ITD. The inhibitory activity is correlated with inhibition of cell growth, according to the protocols described by SPIEKERMANN, K. et al., Blood, 2003, 101, (4) 1494-1504 and O'FARRELL, A.-M. et al., Blood, 2003, 101, (9) 3597-3605.
(§2) The MV4-11 cells are washed with PBS buffer and seeded in 96-well plates, at a density of 1.10^5 cells/ml (100 μl per well), in RPMI 1640 containing 10% of FCS, in the presence or absence of the test compounds. After incubation for 72 h, viable cells are quantified by measurement of cellular ATP using the CellTiter-Glo® kit (Promega, Cat G7571). The cells are treated according to the instructions given by the supplier of the kit and the luminescence is measured using a Luminoskan (Ascent, Labsystem) with the following parameters: measurement: single; integration time: 1000 ms, lag time: 5 s.
The inhibitory activity with respect to the Flt-3 receptor is given by the concentration that inhibits 50% of the proliferation of the MV4-11 cells.
On the technique in general: In ATP-based viability assays light output follows the ATP content of the culture.

The target in assay [2] is T2, fusion protein Tel/PDGF-R beta (PDGF beta receptor) in BaF/3 cells (Homo sapiens, UniProt P09619).
T2 construct: the transmembrane and intracellular part of the PDGF-R beta receptor; expressed in transfected cells; host or cells: murine haematopoietic cell line BaF/3; the other entry of the earlier key: ETV6 (P41212, Transcription factor ETV6)
T2 sequence (P09619 with tags, fused parts or gaps): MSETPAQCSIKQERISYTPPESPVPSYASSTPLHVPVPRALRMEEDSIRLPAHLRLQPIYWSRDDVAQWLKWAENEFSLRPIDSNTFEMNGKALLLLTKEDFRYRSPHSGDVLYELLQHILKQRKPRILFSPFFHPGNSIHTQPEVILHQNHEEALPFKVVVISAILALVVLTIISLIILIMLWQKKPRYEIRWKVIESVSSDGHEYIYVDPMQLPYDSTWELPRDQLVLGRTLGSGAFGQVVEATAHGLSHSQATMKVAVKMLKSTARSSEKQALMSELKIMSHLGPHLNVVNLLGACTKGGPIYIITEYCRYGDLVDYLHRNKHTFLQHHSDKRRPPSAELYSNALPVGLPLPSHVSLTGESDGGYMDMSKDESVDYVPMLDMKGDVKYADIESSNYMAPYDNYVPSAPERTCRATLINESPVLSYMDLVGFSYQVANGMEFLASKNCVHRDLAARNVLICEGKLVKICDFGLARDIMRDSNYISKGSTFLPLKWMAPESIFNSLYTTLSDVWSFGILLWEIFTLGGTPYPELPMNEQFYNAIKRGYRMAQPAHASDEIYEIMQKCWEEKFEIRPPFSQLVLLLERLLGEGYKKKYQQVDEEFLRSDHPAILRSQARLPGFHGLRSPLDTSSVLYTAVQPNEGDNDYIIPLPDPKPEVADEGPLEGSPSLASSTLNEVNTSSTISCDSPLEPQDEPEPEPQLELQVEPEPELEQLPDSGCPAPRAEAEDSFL
Put plainly: Inhibition of proliferation of BaF3 Tel/PDGF cells (tyrosine kinase activity of PDGF-R beta), CellTiter-Glo, 72 h. Particulars: 72 h incubation, cellular ATP, read-out: IC50 (concentration that inhibits 50% of the proliferation of Baf3 tel/PDGF cells). The format is cell-based, murine.
From the text: as §1
Measurement of Inhibition of the Tyrosine Kinase Activity of the Receptor to PDGF Beta (PDGF-Rβ) (Baf-3 tel/PDGFRβ):
This test consists of evaluating the effects of the compounds on the tyrosine kinase activity of the PDGF beta receptor.
The inhibitory effect of the compounds according to the invention on the tyrosine kinase activity of the PDGF-R receptor was evaluated on the murine haematopoietic cell line BaF/3 transfected with a plasmid coding for the fusion protein Tel/PDGF-R beta. This fusion protein is found in chronic myeloid myelomonocytic leukaemias (CMML). It comprises the N-terminal part of the transcription factor Tel and the transmembrane and intracellular part of the PDGF-R beta receptor. This fusion protein is present in dimerized form (presence of an oligomerization domain in the N-terminal part of Tel) and accordingly leads to the constitutive activity of the kinase domain of PDGF-R beta.
as §2, with “The BaF3 Tel/PDGF” for “The MV4-11”, “with phosphate” for “with PBS”, “of 5.10^4” for “of 1.10^5”, “([…]” for “(100 μl”, “h, the” for “h,”, “measured with” for “measured using”
It thus appears that the compounds according to the invention have an inhibitory activity on the tyrosine kinase activity of PDGF-R beta. This activity is given by the concentration that inhibits 50% of the proliferation of Baf3 tel/PDGF cells (IC50).

For `CCn1c(N)c(-c2ncc[nH]2)c(=O)c2ccc(-c3ccc(CC(=O)Nc4ncc(C)s4)cc3)nc21` [Compound 8, 2-{4-[7-Amino-8-ethyl-6-(1H-imidazol-2-yl)-5-oxo-5,8-dihydro-[1,8]naphthyridin-2-yl]-phenyl}-N-(5-methyl-thiazol-2-yl)-acetamide], the IC50 came to 0.052 µM in assay [1] and 0.002 µM in assay [2].
As for `CCn1c(N)c(-c2ncc[nH]2)c(=O)c2ccc(-c3ccc(CC(=O)Nc4nnc(C5CC5)s4)cc3)nc21` [Compound 20, 2-{4-[7-Amino-8-ethyl-6-(1H-imidazol-2-yl)-5-oxo-5,8-dihydro-[1,8]naphthyridin-2-yl]-phenyl}-N-(5-cyclopropyl-[1,3,4]thiadiazol-2-yl)-acetamide], the IC50 was determined as 0.026 µM in assay [1] and 0.008 µM in assay [2].
Taken in the same sequence, the figures for `CCn1c(N)c(-c2ncc[nH]2)c(=O)c2ccc(-c3ccc(CC(=O)Nc4onc(C)c4C)cc3)nc21` [Compound 27, 2-{4-[7-Amino-8-ethyl-6-(1H-imidazol-2-yl)-5-oxo-5,8-dihydro-[1,8]naphthyridin-2-yl]-phenyl}-N-(3,4-dimethyl-isoxazol-5-yl)-acetamide] were 0.03 µM and 0.002 µM.
Consider `CCn1c(N)c(-c2ncc[nH]2)c(=O)c2ccc(-c3ccc(CC(=O)Nc4ncccc4C)cc3)nc21` [Compound 32, 2-{4-[7-Amino-8-ethyl-6-(1H-imidazol-2-yl)-5-oxo-5,8-dihydro-[1,8]naphthyridin-2-yl]-phenyl}-N-(3-methyl-pyridin-2-yl)-acetamide], for which the IC50 in assay [1] turned out to be 0.069 µM.
For `CCn1c(N)c(-c2ncc[nH]2)c(=O)c2ccc(-c3ccc(CC(=O)Nc4cnccc4C)cc3)nc21` [Compound 42, 2-{4-[7-Amino-8-ethyl-6-(1H-imidazol-2-yl)-5-oxo-5,8-dihydro-[1,8]naphthyridin-2-yl]-phenyl}-N-(4-methyl-pyridin-3-yl)-acetamide], the IC50 in assay [1] came to 0.084 µM.
In the case of `CCc1ccnc(NC(=O)Cc2ccc(-c3ccc4c(=O)c(-c5ncc[nH]5)c(N)n(CC)c4n3)cc2)c1` [Compound 43, 2-{4-[7-Amino-8-ethyl-6-(1H-imidazol-2-yl)-5-oxo-5,8-dihydro-[1,8]naphthyridin-2-yl]-phenyl}-N-(4-ethyl-pyridin-2-yl)-acetamide], the figures for the IC50 in assay [1] and in assay [2] were 0.019 µM and 0.0014 µM, respectively.
Taken in the same sequence, the figures for `CCn1c(N)c(-c2nc(C)c[nH]2)c(=O)c2ccc(-c3ccc(CC(=O)NCc4ccncc4)cc3)nc21` [Compound 50, 2-{4-[7-Amino-8-ethyl-6-(4-methyl-1H-imidazol-2-yl)-5-oxo-5,8-dihydro-[1,8]naphthyridin-2-yl]-phenyl}-N-pyridin-4-ylmethyl-acetamide] were 0.115 µM and 0.0066 µM.
